Experimental data as given in publication PMC10682503, “Structural and functional basis of inositol hexaphosphate stimulation of NHEJ through stabilization of Ku-XLF interaction” (Nucleic Acids Research, 2023).

Legend:
[1] = molecular target: T1, Ku-2E (Ku70-K357E, Ku80-K481E) (Homo sapiens, UniProt P12956+P13010, K357E/K481E); test: nanoDSF thermal stability of Ku-2E; conditions: Ku-2E with DNA
T1 construct: 10x His-tag with TEV site (same vector as KuFL) (N); made in house; host or cells: Sf21 insect cells

[2] = test system: c-NHEJ; conditions: cited from earlier work
[3] = molecular target: Ku-DNA interaction (Homo sapiens, UniProt P12956+P13010); test: Single-molecule colocalization (TIRF) of Ku-AF647 on 18 bp DNA; type: binding; conditions: IP6 10 μM
Experimental: Single molecule labelling, and flow channel preparation for single-molecule colocalization experiment are described in Supplemental Information. A single-molecule experiment was performed on a Total Internal Reflection Fluorescence (TIRF) microscope equipped with an inverted oil immersion objective (×100, 1.49 NA lens) coupled to 532 nm (Ultra-Laser, MGL-FN-532) and 639 nm (Ultra-Laser, MGL-FN-639) excitation lasers to excite the sample at TIRF illumination. A dichroic beam splitter (Semrock, Di03-635-t1) was used to split green and red signals, which were passed through narrow bandpass filters (Semrock, FF01-582/64 and FF01-680/42). The signals were collected by an electron-multiplying charge-coupled device (EM-CCD) (Andor, iXon897). Fluorescence beads (Invitrogen, Life Technologies Corporation, Eugene, OR) were used to map corresponding signals in green and red channels.
The BSA in the flow channel was washed with T50 buffer. […] Movies of 1 000 frames (33 Hz) were recorded with the red laser and both lasers turned on for the first 900 frames and last 100 frames, respectively. Four independent experiments were performed where at least 20 movies were recorded for each experimental condition. […]
Fluorescent labelling of Ku. […] The labelled protein was determined to have 50 % labelling efficiency, spectrophotometrically. […]

[4] = test system: S. cerevisae Ku; design: method as in PMID 11953323; conditions: cited from earlier work
[5] = molecular target: Ku; design: method as in PMID 18776215; conditions: competition assays with 3H-IP6; cited from earlier work

Chain of Ku-DNA interaction (P12956 whole entry): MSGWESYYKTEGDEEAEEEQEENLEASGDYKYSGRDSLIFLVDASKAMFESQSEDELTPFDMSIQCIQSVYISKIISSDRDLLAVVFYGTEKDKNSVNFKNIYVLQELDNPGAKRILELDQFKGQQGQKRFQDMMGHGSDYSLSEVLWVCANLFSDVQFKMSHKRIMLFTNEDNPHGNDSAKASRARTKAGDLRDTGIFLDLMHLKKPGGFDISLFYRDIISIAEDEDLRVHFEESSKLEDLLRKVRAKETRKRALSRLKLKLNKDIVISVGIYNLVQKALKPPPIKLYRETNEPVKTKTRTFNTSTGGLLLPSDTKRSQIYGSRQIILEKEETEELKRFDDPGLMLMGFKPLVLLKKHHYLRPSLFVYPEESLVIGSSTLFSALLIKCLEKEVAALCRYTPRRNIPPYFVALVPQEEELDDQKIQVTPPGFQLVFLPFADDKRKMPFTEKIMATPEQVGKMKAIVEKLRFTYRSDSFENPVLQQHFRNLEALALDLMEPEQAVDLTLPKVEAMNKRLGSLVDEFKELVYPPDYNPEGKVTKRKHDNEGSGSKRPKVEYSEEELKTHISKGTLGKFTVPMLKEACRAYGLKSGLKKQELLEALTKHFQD
Chain of Ku-DNA interaction (P13010 whole entry): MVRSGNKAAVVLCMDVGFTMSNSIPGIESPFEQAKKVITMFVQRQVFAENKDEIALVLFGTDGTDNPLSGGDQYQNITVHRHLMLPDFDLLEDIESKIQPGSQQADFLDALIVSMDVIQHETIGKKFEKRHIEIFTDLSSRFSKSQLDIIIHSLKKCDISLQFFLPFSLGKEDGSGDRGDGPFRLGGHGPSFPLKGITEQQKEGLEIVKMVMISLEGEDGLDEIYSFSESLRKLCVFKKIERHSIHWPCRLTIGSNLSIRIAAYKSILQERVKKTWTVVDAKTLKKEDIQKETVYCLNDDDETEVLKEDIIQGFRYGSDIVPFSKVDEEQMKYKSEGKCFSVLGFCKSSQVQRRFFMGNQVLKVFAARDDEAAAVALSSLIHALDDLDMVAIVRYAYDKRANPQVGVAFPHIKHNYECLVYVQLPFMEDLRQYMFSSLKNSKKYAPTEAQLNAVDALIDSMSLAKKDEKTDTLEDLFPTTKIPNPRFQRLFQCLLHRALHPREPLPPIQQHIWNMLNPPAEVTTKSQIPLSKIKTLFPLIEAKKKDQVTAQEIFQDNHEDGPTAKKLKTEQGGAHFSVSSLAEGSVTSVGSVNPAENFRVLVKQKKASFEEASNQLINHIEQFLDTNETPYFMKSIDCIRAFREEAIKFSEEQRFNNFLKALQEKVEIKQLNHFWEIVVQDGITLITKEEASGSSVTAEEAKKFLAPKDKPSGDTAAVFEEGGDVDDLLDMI
T1 sequence (P12956 whole entry K357E): as the sequence (P12956 whole entry) above, with K357E counted along it
T1 sequence (P13010 whole entry K481E): as the sequence (P13010 whole entry) above, with K481E counted along it

## O=P(O)(O)O[C@H]1[C@H](OP(=O)(O)O)[C@@H](OP(=O)(O)O)[C@H](OP(=O)(O)O)[C@@H](OP(=O)(O)O)[C@H]1OP(=O)(O)O [IP6, inositol hexaphosphate]
[1]
  extra thermal stabilization by IP6: no extra stabilization
[2]; human cell extracts
  effect on end-joining of a linear plasmid substrate and DNA-PK dependent phosphorylation of XLF: stimulated
[2]; human whole-cell extracts
  effect on c-NHEJ: stimulate c-NHEJ
[3]
  kinetic dissociation constant (kOFF) of Ku from dsDNA: decreases
  residence times of Ku on DNA: slightly increases
[4]
  interaction between S. cerevisae Ku and IP6: absence of interactions
[5]
  Kd: 46 nM
